In experiment [1] the test system is Integrin alpha-IIb/beta-3 (Canis lupus familiaris). Put plainly: Inhibition of ADP-mediated platelet aggregation over 6 hr. The following applies: concentration not given here.
The target in experiment [2] is T1, Integrin alpha-IIb/beta-3 (Homo sapiens, UniProt P05106+P08514). Put plainly: Inhibition of Fibrinogen Receptor integrin alphaIIb-beta3 in ELISA. It counts as protein-complex assay.
Target sequence in this assay (P05106 27-788 limits assumed): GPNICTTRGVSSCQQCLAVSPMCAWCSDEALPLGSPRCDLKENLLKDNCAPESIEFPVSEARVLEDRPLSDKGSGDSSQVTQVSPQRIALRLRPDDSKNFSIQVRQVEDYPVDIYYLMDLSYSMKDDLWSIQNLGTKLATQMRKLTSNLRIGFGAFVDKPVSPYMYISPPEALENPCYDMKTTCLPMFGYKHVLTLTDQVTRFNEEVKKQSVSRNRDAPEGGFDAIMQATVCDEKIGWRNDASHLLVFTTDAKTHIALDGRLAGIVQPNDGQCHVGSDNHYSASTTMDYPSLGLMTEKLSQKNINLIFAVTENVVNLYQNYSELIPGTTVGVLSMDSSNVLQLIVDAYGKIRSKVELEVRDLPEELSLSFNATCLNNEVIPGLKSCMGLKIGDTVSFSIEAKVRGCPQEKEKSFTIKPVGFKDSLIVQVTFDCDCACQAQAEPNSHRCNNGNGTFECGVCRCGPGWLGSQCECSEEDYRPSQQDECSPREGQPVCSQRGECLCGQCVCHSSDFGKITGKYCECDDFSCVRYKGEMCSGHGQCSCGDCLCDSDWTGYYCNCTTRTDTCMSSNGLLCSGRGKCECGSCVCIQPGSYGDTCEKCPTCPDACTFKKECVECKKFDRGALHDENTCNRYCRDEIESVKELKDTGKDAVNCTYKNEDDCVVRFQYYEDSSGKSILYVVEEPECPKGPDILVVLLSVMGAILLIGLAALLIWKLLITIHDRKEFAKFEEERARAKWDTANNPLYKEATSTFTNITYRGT
Target sequence in this assay (P08514 32-887 limits assumed): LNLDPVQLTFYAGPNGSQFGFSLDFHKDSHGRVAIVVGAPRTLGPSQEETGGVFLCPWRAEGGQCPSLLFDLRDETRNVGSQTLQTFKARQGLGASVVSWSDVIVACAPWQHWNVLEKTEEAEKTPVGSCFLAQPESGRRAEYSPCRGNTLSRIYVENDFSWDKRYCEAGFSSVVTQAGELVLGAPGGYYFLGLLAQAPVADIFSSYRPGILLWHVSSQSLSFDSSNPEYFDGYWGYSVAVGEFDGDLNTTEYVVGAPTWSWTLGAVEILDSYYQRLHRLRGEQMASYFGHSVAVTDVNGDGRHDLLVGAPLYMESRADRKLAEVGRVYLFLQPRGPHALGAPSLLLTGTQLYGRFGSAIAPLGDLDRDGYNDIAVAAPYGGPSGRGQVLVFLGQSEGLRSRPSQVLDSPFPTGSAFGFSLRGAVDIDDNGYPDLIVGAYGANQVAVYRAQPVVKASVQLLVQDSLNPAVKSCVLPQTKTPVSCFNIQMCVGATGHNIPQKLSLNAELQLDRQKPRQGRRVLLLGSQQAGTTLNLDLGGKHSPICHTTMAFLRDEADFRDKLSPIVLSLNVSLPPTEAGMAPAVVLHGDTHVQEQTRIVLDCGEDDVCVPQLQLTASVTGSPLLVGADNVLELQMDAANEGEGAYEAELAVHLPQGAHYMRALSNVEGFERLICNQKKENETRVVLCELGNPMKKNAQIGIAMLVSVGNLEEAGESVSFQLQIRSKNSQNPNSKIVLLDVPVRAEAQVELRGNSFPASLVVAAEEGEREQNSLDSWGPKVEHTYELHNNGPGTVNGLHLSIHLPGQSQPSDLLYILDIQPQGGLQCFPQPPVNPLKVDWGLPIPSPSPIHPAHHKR
Target sequence in this assay (P08514 891-1039 limits assumed): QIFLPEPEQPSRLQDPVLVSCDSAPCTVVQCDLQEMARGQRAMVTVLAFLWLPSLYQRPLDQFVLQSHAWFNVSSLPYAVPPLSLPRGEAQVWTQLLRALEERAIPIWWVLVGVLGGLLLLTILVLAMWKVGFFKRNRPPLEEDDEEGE
For another experiment, the target named is Integrin alpha-5/beta-1 (Homo sapiens, UniProt P05556+P08648). Put plainly: Inhibition of interaction between HUVEC cells and fibronectin. In kind it is cell-based.
Integrin alpha-5/beta-1, sequence (P05556 21-798 limits assumed): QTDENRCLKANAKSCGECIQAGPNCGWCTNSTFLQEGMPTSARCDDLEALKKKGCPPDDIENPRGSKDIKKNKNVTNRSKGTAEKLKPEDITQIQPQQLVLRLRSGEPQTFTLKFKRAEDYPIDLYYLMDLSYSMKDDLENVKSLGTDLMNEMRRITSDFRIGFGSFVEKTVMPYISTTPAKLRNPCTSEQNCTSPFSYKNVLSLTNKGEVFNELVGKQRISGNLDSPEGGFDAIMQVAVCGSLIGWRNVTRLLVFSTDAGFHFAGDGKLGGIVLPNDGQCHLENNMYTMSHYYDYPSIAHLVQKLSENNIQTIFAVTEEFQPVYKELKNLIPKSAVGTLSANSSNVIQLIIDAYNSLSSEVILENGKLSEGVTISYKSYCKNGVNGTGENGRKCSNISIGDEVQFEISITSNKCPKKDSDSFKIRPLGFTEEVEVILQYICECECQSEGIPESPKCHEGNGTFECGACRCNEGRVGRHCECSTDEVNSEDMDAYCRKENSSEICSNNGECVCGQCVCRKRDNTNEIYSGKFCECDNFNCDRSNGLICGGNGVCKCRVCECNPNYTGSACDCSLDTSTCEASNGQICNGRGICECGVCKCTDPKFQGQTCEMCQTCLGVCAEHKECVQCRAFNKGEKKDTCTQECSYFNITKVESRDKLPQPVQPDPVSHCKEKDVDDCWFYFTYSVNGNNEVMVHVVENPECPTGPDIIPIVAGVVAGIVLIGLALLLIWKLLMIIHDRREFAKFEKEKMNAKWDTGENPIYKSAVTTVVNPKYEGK
Integrin alpha-5/beta-1, sequence (P08648 42-894 limits assumed): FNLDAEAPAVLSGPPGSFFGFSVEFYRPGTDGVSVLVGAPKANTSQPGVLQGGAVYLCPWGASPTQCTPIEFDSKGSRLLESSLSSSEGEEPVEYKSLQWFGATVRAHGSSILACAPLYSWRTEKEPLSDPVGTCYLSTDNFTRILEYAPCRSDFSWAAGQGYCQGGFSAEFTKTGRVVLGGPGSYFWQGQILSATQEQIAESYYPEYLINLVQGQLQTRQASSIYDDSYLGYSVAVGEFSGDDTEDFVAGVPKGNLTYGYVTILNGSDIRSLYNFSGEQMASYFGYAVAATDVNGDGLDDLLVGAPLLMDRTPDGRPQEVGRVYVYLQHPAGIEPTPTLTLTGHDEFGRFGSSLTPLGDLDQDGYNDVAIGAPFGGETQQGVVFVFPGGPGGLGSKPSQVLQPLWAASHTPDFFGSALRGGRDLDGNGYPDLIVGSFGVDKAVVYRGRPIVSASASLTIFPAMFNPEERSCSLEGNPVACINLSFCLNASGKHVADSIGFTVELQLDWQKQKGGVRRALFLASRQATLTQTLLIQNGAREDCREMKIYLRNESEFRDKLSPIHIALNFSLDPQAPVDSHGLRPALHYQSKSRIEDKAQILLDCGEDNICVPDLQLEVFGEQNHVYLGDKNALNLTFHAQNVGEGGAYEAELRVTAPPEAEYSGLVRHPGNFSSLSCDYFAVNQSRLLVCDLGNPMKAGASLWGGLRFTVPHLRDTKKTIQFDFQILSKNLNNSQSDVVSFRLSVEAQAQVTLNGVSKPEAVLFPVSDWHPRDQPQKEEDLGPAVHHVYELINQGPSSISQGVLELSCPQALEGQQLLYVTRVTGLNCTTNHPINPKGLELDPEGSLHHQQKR
Integrin alpha-5/beta-1, sequence (P08648 895-1049 limits assumed): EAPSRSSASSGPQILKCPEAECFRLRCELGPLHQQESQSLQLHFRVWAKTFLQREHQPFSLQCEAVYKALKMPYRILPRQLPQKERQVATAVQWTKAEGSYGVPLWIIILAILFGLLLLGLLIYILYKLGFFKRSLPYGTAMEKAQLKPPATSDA
Experiment [3] in a line: Inhibition of interaction between HUVEC cells and Vitronectin. It counts as cell-based, Homo sapiens.
In experiment [4] the target is T1, Integrin alpha-IIb/beta-3. Put plainly: Inhibition of [125I]fibrinogen binding to activated human platelets. In kind it is functional.
Target sequence in this assay (P05106 27-788 limits assumed): as the sequence (P05106 27-788 limits assumed) above
Target sequence in this assay (P08514 32-887 limits assumed): as the sequence (P08514 32-887 limits assumed) above
Target sequence in this assay (P08514 891-1039 limits assumed): as the sequence (P08514 891-1039 limits assumed) above
Experiment [5] has as its target T2, Integrin alpha-M/beta-2 (Homo sapiens, UniProt P05107+P11215). Put plainly: Inhibition of Mac-1 integrin (alphaM-beta2). In kind it is protein-complex assay.
In experiment [6] the target is T2, Integrin alpha-M/beta-2. Put plainly: Inhibition of Mac-1 interaction with ICAM. In kind it is protein-complex assay.
Another experiment has as its target Integrin alpha-4/beta-1 (Homo sapiens, UniProt P05556+P13612). Put plainly: Inhibition of VLA-4 integrin alpha4-beta1 interaction with VCAM. In kind it is protein-complex assay.
The target in experiment [7] is T1, Integrin alpha-IIb/beta-3. Put plainly: Inhibition of human platelet aggregation induced by ADP at 100 uM. It counts as functional.

T2 sequence (P05107 23-769 limits assumed, other chains not shown): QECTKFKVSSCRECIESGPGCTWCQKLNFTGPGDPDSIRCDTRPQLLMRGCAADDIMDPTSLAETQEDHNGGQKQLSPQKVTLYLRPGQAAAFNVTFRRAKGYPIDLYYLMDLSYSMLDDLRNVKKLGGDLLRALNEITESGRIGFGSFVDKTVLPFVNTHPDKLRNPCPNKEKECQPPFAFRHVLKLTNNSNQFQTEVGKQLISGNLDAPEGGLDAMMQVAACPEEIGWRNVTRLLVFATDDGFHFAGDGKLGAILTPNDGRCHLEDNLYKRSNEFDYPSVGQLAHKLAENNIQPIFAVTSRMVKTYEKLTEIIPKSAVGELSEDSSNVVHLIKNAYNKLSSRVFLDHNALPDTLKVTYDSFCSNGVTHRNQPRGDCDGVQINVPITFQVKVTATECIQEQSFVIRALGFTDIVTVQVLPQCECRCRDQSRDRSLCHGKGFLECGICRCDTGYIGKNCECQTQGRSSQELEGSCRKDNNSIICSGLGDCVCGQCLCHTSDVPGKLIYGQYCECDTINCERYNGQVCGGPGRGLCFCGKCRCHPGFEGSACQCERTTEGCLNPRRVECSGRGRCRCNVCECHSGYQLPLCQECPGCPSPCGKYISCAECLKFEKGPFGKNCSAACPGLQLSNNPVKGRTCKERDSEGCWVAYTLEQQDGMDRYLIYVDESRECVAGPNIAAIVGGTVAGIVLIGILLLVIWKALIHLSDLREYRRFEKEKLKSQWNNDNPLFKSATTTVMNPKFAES

`CCOC(=O)CCNC(=O)CC1CC(c2ccc(C(=N)N)cc2)=NO1` (stereo unspecified): the inhibition (commonly the percentage by which the read-out fell short of the control) in [1] amounted to 90%.

Turning to `N=C(N)c1ccc(C2=NOC(CC(=O)NCCC(=O)O)C2)cc1` (stereo unspecified), the IC50 – broadly, the point on the concentration scale where inhibition reaches its midpoint – in experiment [2] was 0.0011 µM; against Integrin alpha-5/beta-1, 180 µM; in [3] it was 200 µM; in experiment [4] it was 0.01 µM; against Integrin alpha-M/beta-2 [5], greater than 100 µM; at Integrin alpha-M/beta-2 [6], 100 µM. For the same compound, the IC50 at Integrin alpha-4/beta-1 was greater than 100 µM.

In experiment [7], `O=C(O)CCN1C(=O)CC2(CC(CCC3CCNCC3)=NO2)C1=O` (stereo unspecified) showed an inhibition of 16.6%.

The compound `O=C(O)CCCN1C(=O)CC2(CC(CCCC3CCNCC3)=NO2)C1=O` (stereo unspecified) showed an inhibition in [7] of 24%.

In experiment [7], `O=C(O)CCCN1C(=O)CC2(CC(CCC3CCNCC3)=NO2)C1=O` (stereo unspecified) showed an inhibition of 16.3%.

The values are drawn from ChEMBL document CHEMBL1130019, “Discovery of potent isoxazoline glycoprotein IIb/IIIa receptor antagonists” (J Med Chem, 1997).
